{"source": "patent US20260085315A1", "about": "“POLYNUCLEOTIDE COMPOSITIONS AND METHODS FOR TREATMENT OF CANCER” (APTAH BIO, INC., priority 2023, published 2026)", "key": {"MCF-7 cell line": {"test_system": "MCF-7 cell line", "test": "MTT cell viability assay (Example 3)", "format": "cell-based, Human", "conditions": "48 hours, 2% FBS", "procedure": "MTT assay was carried out to assess the cell viability of MCF-7 cell line after treatment with ASMO APT20TTMG, and, therefore, infer the ASMO1 cytotoxicity. The tetrazolium salt reduction (MTT) method evaluates cell viability by assessing mitochondrial integrity. Viable cells are able to reduce MTT reagent, which is yellow and water-soluble, into an insoluble purple formazan product. Formazan quantification could be measured by a spectrophotometer absorbance at 560 nm. The quantity of formazan is directly proportional to the number of viable cells in the culture.\nFor this assay, MCF-7 cells were plated in 96-well plates at a density of 1×10^4 cells/well and cultured for 24 hours for adhesion and, subsequently incubated with eight concentrations (0.0078-1 μM) of APT20TTMG (prepared in medium with 2% FBS) for the period of 48 hours. Then, cells were washed with 150 μL/well of PBS and incubated with 100 μL/well of MTT solution prepared in culture medium, at a concentration of 0.5 mg/mL for 3 hours in the incubator. […] Finally, the absorbance of the samples was measured in a plate reader spectrophotometer (Multiskan Spectrum, Thermo Scientific, Waltham, MA, USA), at a wavelength of 560 nm. The absorbance of each sample was used to determine the cell viability after each treatment condition."}, "[1]": {"test_system": "neuroblastoma cell line SH-SY5Y", "test": "Kinetics of internalization", "format": "cell-based, Human", "conditions": "all evaluated times"}, "SH-SY5Y cell line": {"test_system": "SH-SY5Y cell line", "test": "Mitochondrial membrane potential", "format": "cell-based, Human", "conditions": "all treatments vs non-treated cells"}, "[2]": {"test_system": "neuroblastoma cell line (SK-N-SH)", "test": "Cell viability over time", "format": "cell-based", "conditions": "0.5 μM; 24, 48, 96, 144 hours; indicating a cytostatic effect", "procedure": "FIG. 26 illustrates cell viability results obtained after 24, 48, 96 and 144 hours of incubation with ASMO1 (0.5 μM) in neuroblastoma cell line (SK-N-SH)."}, "MAPT": {"test_system": "MAPT", "test": "MAPT expression by qPCR in SK-N-SH", "format": "cell-based", "conditions": "0.5 μM; for reduction of MAPT expression: relative to Lipofectamine 3000 only", "procedure": "FIG. 27A-27B illustrates MAPT expression and tau quantification obtained after 24, 48, 96 and 144 hours of incubation with ASMO1 (0.5 μM) in neuroblastoma cell line.\nAt all time points cells were rinsed once with PBS, before proceeding with RNA extraction using the RNeasy Plus Kit (Qiagen). RNA (0.1-1 μg) was converted to cDNA using the SuperScript IV First-Strand Synthesis System (Thermo Fisher), following manufacturer instructions. After RNA removal, 5-10 ng of cDNA were amplified by qPCR. The following Taqman probes (Thermo Fisher) were used: Total TAU (MAPT, Assay ID: Hs00902193_m1), GAPDH (GAPDH, Assay ID: Hs99999905_m1). Gene expression was analyzed using the Applied Biosystems QuantStudio™ 12K Flex Real-Time PCR System. Quantification of gene expression was performed using the comparative threshold cycle (2^-ΔΔCT) Livak method, relative to Lipofectamine 3000 only treated cells. Gene expression was normalized to the reference gene GAPDH."}, "U87-MG cell line": {"test_system": "U87-MG cell line", "test": "Mitochondrial membrane potential", "format": "cell-based, Human", "conditions": "0.25 and 0.5 μM"}, "[3]": {"test_system": "U87MG (Human Glioblastoma)", "test": "MTT viability assay 48/96/144 h (Example 5)", "format": "cell-based", "conditions": "0.003-30 μM tested", "procedure": "In vitro effects of APT20TTMG on viability and proliferation of human cancer cell line U87MG (Human Glioblastoma) were also evaluated by MTT and BrdU assays, respectively. Cells were treated with APT20TTMG and Reference Items in technical triplicates (Experiment was done in 3 different sets) at various concentrations for 48 h, 96 h, and 144 h. APT20TTMG and Reference Items were read after every 48 h.\nAs shown in FIGS. 32-33, A MTT assay (FIG. 32) was also performed with another five different concentrations of APT20TTMG (0.003, 0.03, 0.3, 3, and 30 μM) and at 48, 96, and 144 hours of incubation. […] Finally, to confirm whether APT20TTMG is a cytotoxic or cytostatic molecule considering its ability to reduce cellular viability in certain concentrations, a cell proliferation assay (FIG. 33) with the U87-MG cell line was also performed in the same conditions as the MTT assay. […] Cells were plated and treated with 5 different concentrations (0.003, 0.03, 0.3, 3, and 30 μM). BrdU assay was performed after 48, 96, or 144 hours of incubation. Data are plotted as a percentage (%) of cell viability compared to the negative control group (vehicle). Results are expressed as Mean±SEM of three independent experiments performed in three technical replicates. […]"}, "[4]": {"test_system": "Human Glioblastoma Cancer (U-87MG) xenograft", "test": "Histopathology of tumor samples with scoring", "format": "in vivo, athymic nude mice", "parameters": "key: 1: Minimal Fibrosis; 2: Mild Fibrosis; 3: Moderate Fibrosis; 4: Prominent", "conditions": "individual animals; G3 APT20TTMG, G2 TMZ", "source_text": "The fixed tissues were processed for routine paraffin embedding followed by sectioning (3-6 micron). The sections were stained with hematoxylin and eosin. The prepared slides were examined under microscope by the study pathologist to record histopathological findings in tumor samples, related to capsule formation, cell type, connective tissue stroma, apoptosis, necrosis, lipid content, nucleus-to-cytoplasmic (N:C) ratio, nuclei mitotic figures, tumor grade, and level of differentiation. Each histopathological finding and tumor volume were assigned a score ranging from 1 to 4 (Table 7). The sum of these scores for each sample was used to infer the tumor aggressiveness."}}, "note": "d = 2'-deoxy (DNA); m = 2'-O-methyl"}
{"substance": "APT20TTMG: engineered polynucleotide ASMO1, 24 nt, SEQ ID NO: 3 gtccactaacctttcaggccagcg; targeting moieties 5′-GTCCA-3′ and 5′-CG-3′, U1 snRNP recruiting moiety (GTCCACTAACCTTTCAGGCCAGCG; sugars from the 5' end m5 d14 m5, all phosphorothioate, methylation of C and T or U not given here)", "values": [{"measurement": "cell viability (MTT)", "setting": "MCF-7 cell line; 0.5 μM", "value": "86.4±1.6", "unit": "%"}, {"measurement": "cell viability (MTT)", "setting": "MCF-7 cell line; 1 μM", "value": "85±2.7", "unit": "%"}, {"measurement": "internalization", "setting": "[1]", "value": "around 50%"}, {"measurement": "mitochondrial membrane potential", "setting": "SH-SY5Y cell line", "value": "no change in mitochondrial membrane potential"}, {"measurement": "number of viable cells", "setting": "[2]", "value": "remains practically the same"}, {"measurement": "MAPT expression", "setting": "MAPT; 24 hours", "value": "transient increase"}, {"measurement": "reduction of MAPT expression", "setting": "MAPT; 96 h", "value": "82±1.2", "unit": "%"}, {"measurement": "reduction of MAPT expression", "setting": "MAPT; 144 h", "value": "74±4.3", "unit": "%"}, {"measurement": "mitochondrial membrane potential labeling", "setting": "U87-MG cell line", "value": "reducing the labeling"}, {"measurement": "concentrations observed to reduce cell viability (MTT)", "setting": "[3]; 96 and 144 hours", "value": "≥ 0.3", "unit": "µM"}, {"measurement": "concentration observed to reduce cell viability (MTT)", "setting": "[3]; 48 hours", "value": 30, "unit": "µM"}, {"measurement": "Score: Necrosis", "setting": "[4]", "value": 4}]}
